From patent US12655171B2, “Compounds for activating invariant natural killer T-cells and methods of use in eliminating inflammatory senescent cells” (Deciduous Therapeutics, Inc., priority 2021, dated 2026)

Legend:
primary human iNKT cells = assay: Cytokine secretion of primary human iNKT cells co-cultured with drug-loaded BWSTIM cells; assay type: cell-based; conditions: for secretion of IFNγ / secretion of IL-4 / secretion of IL-6 / secretion of TNFα: GVK compounds vs absence of drug loading, α-GalCer vs GVK compounds, media collected 2 days later, FIG. 6C; for Primary iNKT cytokine release: IL-4, IL-6, IFNγ or TNFα
Method: In order to determine the activation profile induced by the compounds described herein, primary human iNKT cells were co-cultured with drug-loaded BWSTIM cells.
Day 0: PBMCs were isolated from human blood using the STEMCELL TECHNOLOGIES™ SepMate™ PBMC isolation system. iNKT cells were then selected using the Miltenyi NKT magnetic cell separation kit.
Day 2: DCD molecules or α-GalCer were both dissolved in DMSO at a 5 mg/mL stock solution. BWSTIM cells were fixed with mitomycin C, then loaded with 10 μg/mL of DCD molecules or α-GalCer for 4 hours at 37° C. at a concentration of 20 k cells/well in 200 μL of media in a u-bottom 96 well dish. Cells were co-cultured with 80 k 6B11+ selected primary human iNKT cells.
D4: Media was collected. Cytokines were measured using the Satorious 4Plex kit on the iQue3 cytometer.
GVK molecules or α-GalCer were both dissolved in DMSO at a 5 mg/mL stock solution. BWSTIM cells were loaded with compounds for 4 hours at 37° C. at a concentration of 20 k cells/well in 200 μL of media in a u-bottom 96 well dish. Cells were co-cultured with 100 k 6B11+ selected primary human iNKT cells. Media was collected 2 days later. Cytokines were measured using the Satorious 4Plex kit on the iQue3 cytometer.

human iTCR [1] = assay: In vitro activation of human iTCR through Jurkat reporter cell line (JiNKT, GFP under NFkB promoter) with drug-loaded BWSTIM cells; assay type: cell-based; conditions: 1 μg/mL; for GFP expression compared to the negative control: BWSTIM + JiNKT, 24 hours, FIG. 6A; for % GFP hiNKT binding (BWSTIM + JiNKT) 1 μg/mL, away from negative control: difference from negative control
Method: In order to determine the human iTCR activation potential induced by the compounds described herein, a jurkat cell line (JiNKT) was transfected with the human iTCR, and GFP under the NFkB promoter (cell line licensed from the Medical University of Vienna). A BWS147 cell line (BWSTIM) was also transfected with CD80 and CD1d to act as the antigen-presenting cell.
(§1) DCD molecules or α-GalCer were both dissolved in DMSO at a 5 mg/mL stock solution. BWSTIM cells were loaded with DCD molecules or α-GalCer at varying concentrations for 4 hours at 37° C. at a concentration of 20 k cells/well in 200 μL of media in a u-bottom 96 well dish. BWSTIM cells were washed 2× with media, then incubated with JiNKT cells at a concentration of 80 k cells/well in a u-bottom 96 well dish. Cells were co-cultured for 18 to 24 hours. The percentage of cells expressing high levels of GFP was measured through flow cytometry (after gating out the mCD45+ BWSTIM cells).
(§2) A jurkat cell line (JiNKT) was transfected with the human iTCR, and GFP under the NFkB promoter. A BWS147 cell line (BWSTIM) was also transfected with CD80 and CD1d to act as the antigen-presenting cell. A mouse iNKT hybridoma cell line (DN3.2) was also used as the iNKT. […]
as §1, with “GVK” for “DCD”, “compounds” for “DCD molecules or α-GalCer at varying concentrations”, “for” for “for 18 to”, “cytometry. 1 μg/mL of molecule GVK1a, GVK1b, GVK1c, or GVK1f was incubated with BWSTIM+JiNKT, and compared to α-GalCer.” for “cytometry (after gating out the mCD45+ BWSTIM cells).”

DN3.2 = assay: IL-2 Secretion (A20 + DN3.2); assay type: cell-based, mouse
mouse iTCR = assay: In vitro activation of mouse iTCR, DN3.2 iNKT hybridoma with drug-loaded BWSTIM cells, IL-2 secretion; assay type: cell-based; conditions: 48 hours co-culture; FIG. 6B
Method: In order to determine the mouse iTCR activation potential induced by the compounds described herein, a mouse iNKT hybridoma cell line (DN3.2) from the La Jolla Institute for Allergy and Immunology were used as the iNKT. The BWS147 cell line (BWSTIM) with CD80 and CD1d acted as the antigen-presenting cell.
(§3) DCD molecules or α-GalCer were both dissolved in DMSO at a 5 mg/mL stock solution. BWSTIM cells were loaded with DCD molecules or α-GalCer of varying concentrations for 4 hours at 37° C. at a concentration of 20 k cells/well in 200 μL of media in a u-bottom 96 well dish. BWSTIM cells were washed 2× with media, then incubated with DN3.2 cells at a concentration of 80 k cells/well in a u-bottom 96 well dish. Cells were co-cultured for 48 hours. Media was collected and IL-2 was measured using the CisBio HTRF ELISA detection kit.
as §2
as §3, with “GVK” for “DCD”, “compounds” for “DCD molecules or α-GalCer of varying concentrations”

human iTCR [2] = assay: % GFP hiNKT binding (recombinant protein CD1d + JiNKT); assay type: cell-based
senescent cells = assay: Selective killing of senescent cells in vitro by activated human iNKT cells; assay type: cell-based
Method: Human iNKT cells were isolated and activated by incubation with α-GalCer. Activated iNKT cells were combined with samples containing healthy cells and senescent cells.

IFNγ = assay: Diet induced obesity (HFD) mouse model: serum IFNγ (ELISA); assay type: in vivo, C57BL/6J mice
Method: (§4) Senescence is a feature of pre-adipocytes in obese individuals. To study the efficacy of the molecules described herein in decreasing senescence in fat, a diet induced obesity high fat diet (HFD) mouse model was used. 22-week-old HFD mice were injected with α-GalCer as a control and compared with the compounds of the present disclosure. The blood and spleen (or adipose tissue) were collected to measure iNKT activation and expansion, respectively. Cells in the eWAT (adipose tissue) were also collected and measured for % senescent cells. HFD mice were compared to non-HFD (normal diet) mice.
(§5) 22-week-old C57BL/6J mice on a chow or high-fat diet (HFD) were injected (I.P) with […] of α-GalCer, compound DCD-101 or compound DCD-154. Molecules were either dissolved in DMSO at a 5 mg/mL stock solution, or formulated into liposomes through thin-film rehydration, then extrusion through 200 nm filters. Liposome-based formulations were constructed using soy phosphatidylcholine, cholesterol, and DCD or α-GalCer in a 2:1:0.15 ratio. Two or twenty hours post-injection, blood was collected from the tail to measure the level of IFNγ using ELISA. Four days post-injection, mice were sacrificed to collect eWAT or spleen. Spleen was used to measure the number of iNKT cells, and eWAT was used to measure the number of iNKT cells and senescent cells using flow cytometry. iNKT cells were identified in the digested adipose tissue by gating live cells and mouse CD1d-α-GalCer tetramer+ cells. Senescent cells were measured withing the processes adipose tissue by selecting mCD45− cells, and C12FDG^HIGH cells.

senescent cells in eWAT = assay: Diet induced obesity (HFD) mouse model: senescent cells (C12FDG+) in eWAT; assay type: in vivo, C57BL/6J mice; conditions: HFD mice, four days post-injection; FIG. 5E
Method: as §4, §5

iNKT cells = assay: Diet induced obesity (HFD) mouse model: iNKT cell expansion in spleen or eWAT; assay type: in vivo, C57BL/6J mice; conditions: HFD mice, I.P. 2 g, four days post-injection
Method: as §4, §5

SMILES | secretion of IFNγ (primary human iNKT cells) | secretion of IL-4 (primary human iNKT cells) | secretion of IL-6 (primary human iNKT cells) | secretion of TNFα (primary human iNKT cells) | Primary iNKT cytokine release (primary human iNKT cells) | GFP expression compared to the negative control (human iTCR [1]) | % GFP hiNKT binding (BWSTIM + JiNKT) 1 μg/mL, away from negative control (human iTCR [1]) | IL-2 Secretion (A20 + DN3.2) (DN3.2) | expression of IL-2 in the DN3.2 cell line when loaded on BWSTIM CD1d (mouse iTCR) | % GFP hiNKT binding (recombinant protein CD1d + JiNKT) (human iTCR [2]) | % GFP hiNKT binding (BWSTIM + JiNKT) 1 μg/mL (human iTCR [1]; % GFP) | killing of senescent vs non-senescent cells by iNKT cells activated by the compound (senescent cells; evaluated after 8 hours and 18 hours, FIG. 7B) | presence of senescent vs non-senescent cells on incubation with iNKT cells activated by the compound (senescent cells; over a period of 18 hours, FIG. 7A) | levels of IFNγ in the HFD model (IFNγ; twenty hours post injection, FIG. 5D) | levels of serum IFNγ in the HFD model (IFNγ; two hours post injection, FIG. 5C) | accumulation of senescent cells (C12FDG+) in eWAT (senescent cells in eWAT) | expansion of immune (iNKT) cells in HFD mouse spleen (iNKT cells; FIG. 5A) | expansion of immune (iNKT) cells in HFD mouse eWAT (iNKT cells; percent iNKT cells of live cells, FIG. 5B)
CCCCCCCCCCCCCCCCCCCCCCCCCC(=O)N[C@@H](CCC1OC(CO)C(O)C(O)C1O)[C@@H](O)[C@H](O)CCCCCCCCCCCCCC (stereo partly shown) [GVK1a] | did not increase secretion | did not increase secretion | did not increase secretion | did not increase secretion | No activation | did not induce GFP expression higher than the negative control | % <5 away from | Activated | – | – | – | – | – | – | – | – | – | –
CCCCCCCCCCCCCCCCCCCCCCCCCC(=O)N[C@@H](CCC1OC(CO)C(O)C(O)C1O)[C@@H](O)[C@H](O)CCCCCCCCCCCCCC (stereo partly shown) [GVK1b] | did not increase secretion | did not increase secretion | did not increase secretion | did not increase secretion | No activation | did not induce GFP expression higher than the negative control | % <5 away from | Does not | did not induce expression of IL-2 | – | – | – | – | – | – | – | – | –
CCCCCCCCCCCCCCCCCCCCCCCCCC(=O)N[C@@H](CO[C@H]1O[C@H](CO)[C@H](O)[C@H](O)[C@H]1O)[C@H](O)[C@H](O)CCCCCCCCCCCCCC [α-GalCer, Alpha-galactosylceramide, reference compound] | significantly greater increase in the secretion | significantly greater increase in the secretion | significantly greater increase in the secretion | significantly greater increase in the secretion | – | induction remained high | – | – | – | % 30 | % 40-70 | senescent cells were selectively killed whereas non-senescent cells were maintained | reduction in the presence of senescent cells over time whereas non-senescent cells were maintained | significantly increased levels of IFNγ | significantly increased levels of IFNγ | effective in decreasing the accumulation of senescent cells in eWAT | caused expansion of immune cells in HFD mouse spleen | caused expansion of immune cells in HFD mouse eWAT
